Reference: EP0974573A1, “PHENYLPROPENONE COMPOUNDS AND MEDICINES CONTAINING THE SAME” (Kabushiki Kaisha Yakult Honsha, priority 1997, dated 1998)

Tests used:
rat-derived ACAT = test: Inhibitory effects on rat-derived ACAT (Test 1); assay type: biochemical; settings: crude enzyme from microsome protein fractions of rat liver, (14C)-oleoyl-CoA substrate, 37°C
Protocol: To test effects on ACAT, a reaction was conducted in vitro to form (^14C)-cholesteryl oleate from endogeneous cholesterol in the presence of (^14C)-oleoyl-CoA as a substrate by using a crude enzyme prepared from microzome protein fractions of a rat liver.
The reaction mixture had the following composition: 20 µℓ of microsome protein (1.83 mg/mℓ), 20 µℓ of (^14C)-oleoyl-CoA (5 µCi/mℓ, BSA: 96 nmol/mℓ), 106 µℓ of 100 mM phosphate buffer (containing 5 mM of dithiothreitol, pH 7.4) and a sample dissolved in 4 µℓ of methanol or dimethyl sulfoxide; 150 µℓ in total.
The reaction was conducted at 37°C. After an elapse of a predetermined reaction time (18 minutes in general), a 2:1 mixture of chloroform and methanol (5.65 mℓ) was added to terminate the reaction. A 0.04 N aquous solution of hydrochloric acid (0.98 mℓ) and as a carrier, cholesteryl oleate were added, followed by extraction for 20 minutes on a shaking apparatus. The mixture was then allowed to stand overnight in a cold dark place. On the following day, the separated lower chloroform layer was extracted in its entirety and was dried under a nitrogen gas stream. The remaining upper layer was added with the lower layer (5.65 mℓ) of the Folch's partition solution, and was extracted again. After the mixture was allowed to stand overnight in a dark place, the lower layer was drawn in its entirety. This lower layer was combined with the lower chloroform layer fraction, which had already been dried to solid, and the mixture was then dried to solid.
The solid was then dissolved in chlorofrom (200 µℓ), and the solution was coated in its entirety on a G60 plate (aluminum sheet) for silica gel thin layer chromatography. After the solid was developedover 10 cm with a 10:190 mixture of diethyl ether and petroleum ether, autoradiography was conducted and the formation of (^14C)-colesteryl oleate was confirmed. This section was then cut off. The radioactivity of each sample was measured by subjecting it to liquid scintillation counting for 5 minutes in toluene or was measured for 30 minutes by a "Betascope" (manufactured by BETA-GEN INC. The results so obtained are shown in Table 1. Table 1

SD rats [1] = test: Plasma cholesterol elevation inhibitory effects on rats loaded with high cholesterol diet, feed-mixed administration (Test 3); assay type: in vivo, rat; settings: 0.005% of compound added to hyperlipemia inducing diet, ad libitum 3 days
From the text: Using 5-week old male SD rats (120-150 g, 10 rats per group, individual feeding), plasma cholesterol elevation inhibitory effects of various compounds in the Examples on rats were studied. To a control group, a feed which had been prepared by adding 1.5% of cholesterol, 0.5% of cholic acid, 10% of coconut oil and 10% of sugar to "F-2 Diet" (product of FUNABASHI FARM CO., LTD.) was given ad libitum as a hyperlipemia inducing diet.
To each test-compound-administered group, on the other hand, a feed which had been prepared by adding 0.005% of the corresponding compound in the Examples to the hyperlipemia inducing diet of the above-described composition was given ad libitum. Further, a normal diet group to which a feed similar to the hyperlipemia inducing diet except for the exclusion of cholesterol was also tested similarly. As a testing method, after these feeds were given ad libitum for 3 days, bloods were drawn on the 4th day from the abdominal aortas of the individual rats under anesthesia with Nembutal. Subsequent to collection of plasma from each blood sample, the plasma cholesterol was quantitated by a "DETERMINER TC555 KIT" (product of Kyowa Medex Co., Ltd.) while the HDL cholesterol was quantitated by "DETERMINER HDL KIT" (product of Kyowa Medex Co., Ltd.). The liver cholesterol was measured by extracting it in accordance with the Folch's method and then measuring it with a "DETERMINER TC555 KIT". Statistical processing of the data so obtained was conducted by the Danett's test.

SD rats [2] = test: Plasma cholesterol elevation inhibitory effects of Compound 6 on rats, oral suspension in carboxymethylcellulose (Test 10); assay type: in vivo, rat; settings: 7 days; for HDLC: plasma HDL cholesterol; for PL: plasma phospholipid; for TC: plasma total cholesterol; for TG: plasma triglyceride
From the text: Using 5-week old male SD rats (120-150 g, 8 rats per group, group feeding), plasma cholesterol elevation inhibitory effects of compound 6 in Examples on rats were studied.
To rats in a control group, only a 1.5% aqueous solution of carboxymethylcellulose was orally administered once a day for 7 days. During the last 3 days, a hyperlipemia inducing diet [a feed prepared by adding 1.5% of cholesterol, 0.5% of cholic acid, 10% of coconut oil and 10% of sugar to "F-2 Diet" (product of FUNABASHI FARM CO., LTD.)] was given ad libitum. To rats in a control group (normal diet), however, a feed (normal diet) similar to the hyperlipemia inducing diet except for the exclusion of cholesterol was given ad libitum.
To test-compound-administered groups, on the other hand, compound 6 suspended in a 1.5% aqueous solution of carboxymethylcellulose was continuously and orally administered at dosages of 5, 10 and 20 mg/kg/day, respectively, once a day for 7 days. During the last 3 days, a hyperlipemia inducing diet [a feed prepared by adding 1.5% of cholesterol, 0.5% of cholic acid, 10% of coconut oil and 10% of sugar to "F-2 Diet" (product of FUNABASHI FARM CO., LTD.)] was given ad libitum.
On the 4th day after the initiation of feeding of the hyperlipemia inducing diet and the normal diet, bloods were drawn from the abdominal aortas of the individual rats under anesthesia with Nembutal. Subsequent to collection of plasma from each blood sample, the plasma cholesterol was quantitated by an "AUTOSERA S-CHO KIT" (product of Daiichi Pure Chemicals Co., Ltd.), the plasma triglyceride was guantitated by an "AUTOSERA TG-N KIT" (product of Daiichi Pure Chemicals Co., Ltd.), and the plasma phospholipid was quantitated by an "AUTOSERA PL KIT" (product of Daiichi Pure Chemicals Co., Ltd.). Further, the HDL cholesterol was quantitated by an "AUTOSERA S-CHO KIT" (product of Daiichi Pure Chemicals Co., Ltd.) after fractionating it by a "DETERMINER HDL KIT" (product of Kyowa Medex Co., Ltd.). The liver lipid level was quantitated by a commercial measuring kit in a similar manner as in the measurement of plasma lipid subsequent to its extraction by the Folch's method. Statistical processing of the data so obtained was conducted by the Dunnet's test.

SD rats [3] = test: Provisional toxicity test of Compound 6; assay type: in vivo, rat; settings: female SD rats, oral by stomach tube in 1.5% CMC, 14 days or 28 days, 100, 250 or 250 mg/kg/day
Protocol: Concerning Compound 6, a provisional toxicity test was conducted.
Using female SD rats (5-weeks old), the test was conducted at a size of 6 rats per group. The animals were subjected to group feeding, and were allowed to take both "F-2 Feed" (product of FUNABASHI FARM CO., LTD.) and tap water ad libitum.
Compound 6 which had been suspended in a 1.5% aqueous solution of CMC was continuously and orally administered by a stomach tube for 14 days or 28 days such that the dosage became 100, 250 or 250 mg/kg/day. To a control group, on the other hand, an aqueous solution of CMC was administered.
Therefore, safety has been confirmed.

[4] = 5 mg/kg oral in carboxymethylcellulose
[5] = 10 mg/kg oral in carboxymethylcellulose
[6] = 20 mg/kg oral in carboxymethylcellulose

Structure (SMILES): CCCCCCCCOc1c(OC)cc(/C=C/C(=O)NN2CCN(c3ccc(C)c(C)c3)CC2)cc1OC [Compound 6, N-[4-(3,4-dimethylphenyl)-1,4-diazacyclohexyl]-(2E)-3-(3,5-dimethoxy-4-octyloxyphenyl)-2-propenamide]
- IC50 (rat-derived ACAT): 11 nM
- Inhibitory rate (%) of plasma total cholesterol elevation in rat (SD rats [1]): 79%
- Inhibitory rate (%) of plasma total cholesterol elevation (SD rats [2]; 5 mg/kg/day oral in 1.5% carboxymethylcellulose): 34%
- Inhibitory rate (%) of plasma total cholesterol elevation (SD rats [2]; 10 mg/kg/day oral in 1.5% carboxymethylcellulose): 57%
- Inhibitory rate (%) of plasma total cholesterol elevation (SD rats [2]; 20 mg/kg/day oral in 1.5% carboxymethylcellulose): 66%
- HDLC (SD rats [2]; [4]): 19.3 ± 4.5 mg/dL
- HDLC (SD rats [2]; [5]): 20.5 ± 4.0 mg/dL
- HDLC (SD rats [2]; [6]): 22.8 ± 2.2 mg/dL
- PL (SD rats [2]; [4]): 243.2 ± 42.5 mg/dL
- PL (SD rats [2]; [5]): 206.7 ± 50.6 mg/dL
- PL (SD rats [2]; [6]): 203.6 ± 21.3 mg/dL
- TC (SD rats [2]; [4]): 303.1 ± 99.4 mg/dL
- TC (SD rats [2]; [5]): 226.6 ± 94.7 mg/dL
- TC (SD rats [2]; [6]): 196.8 ± 44.1 mg/dL
- TG (SD rats [2]; [4]): 202.3 ± 99.7 mg/dL
- TG (SD rats [2]; [5]): 159.0 ± 68.6 mg/dL
- TG (SD rats [2]; [6]): 187.6 ± 79.3 mg/dL
- difference between administered groups and control group in external appearance and results of various biochemical tests (SD rats [3]): no difference was observed
